Measurements from EP0183129A1, “Quinolonecarboxylic acid derivatives” (KYORIN PHARMACEUTICAL CO., LTD., priority 1984, dated 1986).
Values after ≈ are worked out from the molar mass of the structure shown. Like-named read-outs stand apart in the source and are kept apart here.

Columns and labels:
[1] = test system: S. pneumoniae IID 552; test: In vitro antibacterial activity, MIC (standard strain); type: cell-based; conditions: Streptococcus pneumoniae, IID552; S. pneumoniae IID 552; 10^6 cells/ml; standard strain; read-out: MIC
[2] = test system: S. pyogenes 3107; test: In vitro antibacterial activity, MIC (clinical isolates); type: cell-based; conditions: Streptococcus pyogenes
[3] = test system: P. mirabilis IID 994; test: In vitro antibacterial activity, MIC (standard strain); type: cell-based; conditions: Proteus mirabilis, IID994; P. mirabilis IID 994; 10^6 cells/ml; standard strain; read-out: MIC
[4] = test system: S. epidermidis IID 866; test: as above; type: cell-based; conditions: Staphylococcus epidermidis, IID866, S. epidermidis IID 866; 10^6 cells/ml; standard strain; read-out: MIC
[5] = test system: Enterobacter cloacae IID 977; test: as above; type: cell-based; conditions: Enterobacter cloacae, IID977, Enterobacter cloacae IID 977; 10^6 cells/ml; standard strain; read-out: MIC
[6] = test system: S. agalactiae 4368; test: In vitro antibacterial activity, MIC (clinical isolates); type: cell-based; conditions: Streptococcus agalactiae; S. agalactiae 4368; 10^6 cells/ml; clinical isolate; read-out: MIC
[7] = test system: B. fragilis 25285; test: In vitro antibacterial activity, MIC (standard strain); type: cell-based, Bacteroides fragilis; conditions: Bacteroides fragilis, 25285, B. fragilis 25285; 10^6 cells/ml; standard strain; read-out: MIC
[8] = test system: S. aureus IID 670 (Terajima); test: as above; type: cell-based, Staphylococcus aureus; conditions: Staphylococcus aureus, IID670, S. aureus IID 670 (Terajima); 10^6 cells/ml; standard strain; read-out: MIC
[9] = test system: S. faecalis 214; test: In vitro antibacterial activity, MIC (clinical isolates); type: cell-based; conditions: Enterococcus faecalis; S. faecalis 214; 10^6 cells/ml; clinical isolate; read-out: MIC
[10] = test system: Staphylococcus aureus 209 P; test: In vitro antibacterial activity, MIC (standard strain); type: cell-based; conditions: Staphylococcus aureus 209 P; 10^6 cells/ml; standard strain; read-out: MIC
[11] = test system: Acinetobacter anitratus IID 876; test: as above; type: cell-based; conditions: Acinetobacter calcoaceticus, IID876, Acinetobacter anitratus IID 876; 10^6 cells/ml; standard strain; read-out: MIC
[12] = test system: S. agalactiae 4394; test: In vitro antibacterial activity, MIC (clinical isolates); type: cell-based; conditions: Streptococcus agalactiae; S. agalactiae 4394; 10^6 cells/ml; clinical isolate; read-out: MIC
[13] = test system: C. ramosum; test: In vitro antibacterial activity, MIC (standard strain); type: cell-based; conditions: Thomasclavelia ramosa; C. ramosum; 10^6 cells/ml; standard strain; read-out: MIC
[14] = test system: S. agalactiae 4470; test: In vitro antibacterial activity, MIC (clinical isolates); type: cell-based; conditions: Streptococcus agalactiae; S. agalactiae 4470; 10^6 cells/ml; clinical isolate; read-out: MIC
[15] = test system: Salmonella entritidis IID 604; test: In vitro antibacterial activity, MIC (standard strain); type: cell-based; conditions: IID604; Salmonella entritidis IID 604; 10^6 cells/ml; standard strain; read-out: MIC
[16] = test system: Proteus vulgaris IFO 3167; test: as above; type: cell-based; conditions: IFO3167; Proteus vulgaris IFO 3167; 10^6 cells/ml; standard strain; read-out: MIC
[17] = test system: S. pneumoniae 2054; test: In vitro antibacterial activity, MIC (clinical isolates); type: cell-based; conditions: Streptococcus pneumoniae; S. pneumoniae 2054; 10^6 cells/ml; clinical isolate; read-out: MIC
[18] = test system: P. aeruginosa IID 1210; test: In vitro antibacterial activity, MIC (standard strain); type: cell-based; conditions: Pseudomonas aeruginosa, IID1210; P. aeruginosa IID 1210; 10^6 cells/ml; standard strain; read-out: MIC
[19] = test system: S. pyogenes 3102; test: In vitro antibacterial activity, MIC (clinical isolates); type: cell-based; conditions: Streptococcus pyogenes
[20] = test system: S. pyogenes 4372; test: as above; type: cell-based; conditions: Streptococcus pyogenes
[21] = test system: S. pneumoniae 2950; test: as above; type: cell-based; conditions: Streptococcus pneumoniae
[22] = test system: E. coli ATCC 10536; test: In vitro antibacterial activity, MIC (standard strain); type: cell-based; conditions: Escherichia coli, ATCC10536; E. coli ATCC 10536; 10^6 cells/ml; standard strain; read-out: MIC
[23] = test system: S. pneumoniae 15; test: In vitro antibacterial activity, MIC (clinical isolates); type: cell-based; conditions: Streptococcus pneumoniae; S. pneumoniae 15; 10^6 cells/ml; clinical isolate; read-out: MIC
[24] = test system: Clostridium perfringens KYA 13123; test: microbe, parasite or virus in culture; type: cell-based; conditions: KYA13123
[25] = test system: Morganella morganii IID 602; test: In vitro antibacterial activity, MIC (standard strain); type: cell-based; conditions: IID602; Morganella morganii IID 602; 10^6 cells/ml; standard strain; read-out: MIC
[26] = test system: Bacteroides fragilis GM 7000; test: as above; type: cell-based; conditions: GM7000; Bacteroides fragilis GM 7000; 10^6 cells/ml; standard strain; read-out: MIC
[27] = test system: Serratia marcescens IID 618; test: as above; type: cell-based; conditions: Serratia marcescens, IID618, Serratia marcescens IID 618; 10^6 cells/ml; standard strain; read-out: MIC
[28] = test system: Bacillus subtilis PCI 219; test: as above; type: cell-based; conditions: PCI219; Bacillus subtilis PCI 219; 10^6 cells/ml; standard strain; read-out: MIC
[29] = test system: Pseudomonas aeruginosa V-1; test: as above; type: cell-based; conditions: V1; Pseudomonas aeruginosa V-1; 10^6 cells/ml; standard strain; read-out: MIC
[30] = test system: S. faecalis 401; test: In vitro antibacterial activity, MIC (clinical isolates); type: cell-based; conditions: Enterococcus faecalis; S. faecalis 401; 10^6 cells/ml; clinical isolate; read-out: MIC
[31] = test system: S. agalactiae 4049; test: as above; type: cell-based; conditions: Streptococcus agalactiae; S. agalactiae 4049; 10^6 cells/ml; clinical isolate; read-out: MIC
[32] = S. pyogenes 3107, 10^6 cells/ml, clinical isolate, read-out: MIC
[33] = S. pyogenes 3102, 10^6 cells/ml, clinical isolate, read-out: MIC
[34] = S. pyogenes 4372, 10^6 cells/ml, clinical isolate, read-out: MIC
[35] = S. pneumoniae 2950, 10^6 cells/ml, clinical isolate, read-out: MIC

Compound | MIC [1] [µg/mL] | MIC [3] [µg/mL] | MIC [4] [µg/mL] | MIC [5] [µg/mL] | MIC [6] [µg/mL] | MIC [7] [µg/mL] | MIC [8] [µg/mL] | MIC [9] [µg/mL] | MIC [10] [µg/mL] | MIC [11] [µg/mL] | MIC [12] [µg/mL] | MIC [13] [µg/mL] | MIC [14] [µg/mL] | MIC [15] [µg/mL] | MIC [16] [µg/mL] | MIC [17] [µg/mL] | MIC [18] [µg/mL] | MIC [22] [µg/mL] | MIC [23] [µg/mL] | MIC [24] [µg/mL] | other results
CN(C)CC1CCN(c2c(F)cc3c(=O)c(C(=O)O)cn(C4CC4)c3c2Cl)C1 (stereo not drawn) [Example 20, 8-Chloro-1-cyclopropyl-6-fluoro-1,4-dihydro-7-(3-dimethylaminomethyl-l-pyrrolidinyl)-4-oxo-3-quinolinecarboxylic acid] | 0.05 (≈ 0.123 µM) | 0.05 (≈ 0.123 µM) | 0.05 (≈ 0.123 µM) | 0.1 (≈ 0.245 µM) | 0.05 (≈ 0.123 µM) | ≤ 0.05 | 0.05 (≈ 0.123 µM) | 0.1 (≈ 0.245 µM) | 0.025 (≈ 0.0613 µM) | 0.05 (≈ 0.123 µM) | 0.2 (≈ 0.49 µM) | 0.39 (≈ 0.956 µM) | 0.1 (≈ 0.245 µM) | 0.1 (≈ 0.245 µM) | 0.05 (≈ 0.123 µM) | 0.1 (≈ 0.245 µM) | 1.56 (≈ 3.82 µM) | 0.025 (≈ 0.0613 µM) | 0.05 (≈ 0.123 µM) | 0.1 (≈ 0.245 µM) | MIC [2, 32]: 0.05 µg/mL (≈ 0.123 µM); MIC [19, 33]: 0.05 µg/mL (≈ 0.123 µM); MIC [20, 34]: 0.1 µg/mL (≈ 0.245 µM); MIC [21, 35]: 0.05 µg/mL (≈ 0.123 µM); MIC [25]: 0.2 µg/mL (≈ 0.49 µM); MIC [26]: 0.1 µg/mL (≈ 0.245 µM); MIC [27]: 0.1 µg/mL (≈ 0.245 µM); MIC [28]: 0.025 µg/mL (≈ 0.0613 µM); MIC [29]: 0.39 µg/mL (≈ 0.956 µM); MIC [30]: 0.1 µg/mL (≈ 0.245 µM); MIC [31]: 0.1 µg/mL (≈ 0.245 µM)
CN(C)CC1CCN(c2c(F)cc3c(=O)c(C(=O)O)cn(C4CC4)c3c2F)C1 (stereo not shown) [Example 21, 1-Cyclopropyl-6,8-difluoro-1,4-dihydro-7-(3-dimethylaminomethyl-1-pyrrolidinyl)-4-oxo-3-quinolinecarboxylic acid] | 0.2 (≈ 0.511 µM) | 0.1 (≈ 0.255 µM) | 0.05 (≈ 0.128 µM) | 0.2 (≈ 0.511 µM) | 0.2 (≈ 0.511 µM) | 0.2 (≈ 0.511 µM) | 0.05 (≈ 0.128 µM) | 0.2 (≈ 0.511 µM) | 0.05 (≈ 0.128 µM) | 0.05 (≈ 0.128 µM) | 0.2 (≈ 0.511 µM) | 0.78 (≈ 1.99 µM) | 0.2 (≈ 0.511 µM) | 0.1 (≈ 0.255 µM) | 0.05 (≈ 0.128 µM) | 0.2 (≈ 0.511 µM) | 3.13 (≈ 8 µM) | 0.05 (≈ 0.128 µM) | 0.2 (≈ 0.511 µM) | 0.2 (≈ 0.511 µM) | MIC [2, 32]: 0.1 µg/mL (≈ 0.255 µM); MIC [19, 33]: 0.1 µg/mL (≈ 0.255 µM); MIC [20, 34]: 0.2 µg/mL (≈ 0.511 µM); MIC [21, 35]: 0.1 µg/mL (≈ 0.255 µM); MIC [25]: 0.2 µg/mL (≈ 0.511 µM); MIC [26]: 0.39 µg/mL (≈ 0.996 µM); MIC [27]: 0.2 µg/mL (≈ 0.511 µM); MIC [28]: 0.05 µg/mL (≈ 0.128 µM); MIC [29]: 0.39 µg/mL (≈ 0.996 µM); MIC [30]: 0.2 µg/mL (≈ 0.511 µM); MIC [31]: 0.2 µg/mL (≈ 0.511 µM)
CCn1cc(C(=O)O)c(=O)c2cc(F)c(N3CCNCC3)cc21 [NFLX, Norfloxacin, reference compound] | 3.13 (≈ 9.8 µM) | 0.05 (≈ 0.157 µM) | 0.39 (≈ 1.22 µM) | 0.1 (≈ 0.313 µM) | 3.13 (≈ 9.8 µM) | 25 (≈ 78.3 µM) | 0.78 (≈ 2.44 µM) | 3.13 (≈ 9.8 µM) | 0.78 (≈ 2.44 µM) | 3.13 (≈ 9.8 µM) | 6.25 (≈ 19.6 µM) | 50 (≈ 157 µM) | 6.25 (≈ 19.6 µM) | 0.1 (≈ 0.313 µM) | 0.025 (≈ 0.0783 µM) | 6.25 (≈ 19.6 µM) | 3.13 (≈ 9.8 µM) | 0.05 (≈ 0.157 µM) | 3.13 (≈ 9.8 µM) | 1.56 (≈ 4.89 µM) | MIC [2]; 3107: 1.56 µg/mL (≈ 4.89 µM); MIC [19]; 3102: 1.56 µg/mL (≈ 4.89 µM); MIC [20]; 4372: 1.56 µg/mL (≈ 4.89 µM); MIC [21]; 2950: 12.5 µg/mL (≈ 39.1 µM); MIC [25]: 0.05 µg/mL (≈ 0.157 µM); MIC [26]: 25 µg/mL (≈ 78.3 µM); MIC [27]: 0.05 µg/mL (≈ 0.157 µM); MIC [28]: 0.1 µg/mL (≈ 0.313 µM); MIC [29]: 0.78 µg/mL (≈ 2.44 µM); MIC [30]: 6.25 µg/mL (≈ 19.6 µM); MIC [31]: 6.25 µg/mL (≈ 19.6 µM)
CCNCC1CCN(c2c(F)cc3c(=O)c(C(=O)O)cn(CC)c3c2F)C1 (stereo not shown) [Ref.1, 1-Ethyl-7-(3-ethylaminomethyl-1-pyrrolidinyl)-6,8-difluoro-1,4-dihydro-4-oxo-3-quinolinecarboxylic acid, reference compound] | 0.2 (≈ 0.527 µM) | 0.2 (≈ 0.527 µM) | 0.1 (≈ 0.264 µM) | 0.2 (≈ 0.527 µM) | 0.2 (≈ 0.527 µM) | 6.25 (≈ 16.5 µM) | 0.1 (≈ 0.264 µM) | 0.39 (≈ 1.03 µM) | 0.05 (≈ 0.132 µM) | 0.78 (≈ 2.06 µM) | 0.78 (≈ 2.06 µM) | 6.25 (≈ 16.5 µM) | 0.39 (≈ 1.03 µM) | 0.39 (≈ 1.03 µM) | 0.05 (≈ 0.132 µM) | 0.39 (≈ 1.03 µM) | 12.5 (≈ 32.9 µM) | 0.1 (≈ 0.264 µM) | 0.2 (≈ 0.527 µM) | 1.56 (≈ 4.11 µM) | MIC [2, 32]: 0.1 µg/mL (≈ 0.264 µM); MIC [19, 33]: 0.2 µg/mL (≈ 0.527 µM); MIC [20, 34]: 0.2 µg/mL (≈ 0.527 µM); MIC [21, 35]: 0.39 µg/mL (≈ 1.03 µM); MIC [25]: 0.78 µg/mL (≈ 2.06 µM); MIC [26]: 12.5 µg/mL (≈ 32.9 µM); MIC [27]: 0.39 µg/mL (≈ 1.03 µM); MIC [28]: 0.05 µg/mL (≈ 0.132 µM); MIC [29]: 6.25 µg/mL (≈ 16.5 µM); MIC [30]: 0.39 µg/mL (≈ 1.03 µM); MIC [31]: 0.39 µg/mL (≈ 1.03 µM)
